Measurements as given in patent US20110178064A1, “SPIRO CONDENSED […] DERIVATIVES FOR USE AS ANTIBACTERIAL” (A[…]&D, priority 2007, published 2011).
Where two headings read alike, the source gives them in different places.

Molecular target: Escherichia coli DNA gyrase A/B tetramer (Escherichia coli, UniProt P0AES4+P0AES6)
Assay: DNA gyrase supercoiling activity fluorescence polarisation assay
Format: biochemical
Summary of the method: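 Gyrase supercoiling reactions quenched with 40 nM 5′-BODIPY-FL oligodeoxynucleotide triplex probe in pH 3.5 NaCl/sodium acetate buffer; fluorescence anisotropy read after 60 min (485/535 nm).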

[1] = E. coli DNA gyrase supercoiling, asterisk: no IC50 obtained at or below the indicated concentration, read-out: IC50

Chain of Escherichia coli DNA gyrase A/B tetramer (P0AES4 whole entry, one chain of several): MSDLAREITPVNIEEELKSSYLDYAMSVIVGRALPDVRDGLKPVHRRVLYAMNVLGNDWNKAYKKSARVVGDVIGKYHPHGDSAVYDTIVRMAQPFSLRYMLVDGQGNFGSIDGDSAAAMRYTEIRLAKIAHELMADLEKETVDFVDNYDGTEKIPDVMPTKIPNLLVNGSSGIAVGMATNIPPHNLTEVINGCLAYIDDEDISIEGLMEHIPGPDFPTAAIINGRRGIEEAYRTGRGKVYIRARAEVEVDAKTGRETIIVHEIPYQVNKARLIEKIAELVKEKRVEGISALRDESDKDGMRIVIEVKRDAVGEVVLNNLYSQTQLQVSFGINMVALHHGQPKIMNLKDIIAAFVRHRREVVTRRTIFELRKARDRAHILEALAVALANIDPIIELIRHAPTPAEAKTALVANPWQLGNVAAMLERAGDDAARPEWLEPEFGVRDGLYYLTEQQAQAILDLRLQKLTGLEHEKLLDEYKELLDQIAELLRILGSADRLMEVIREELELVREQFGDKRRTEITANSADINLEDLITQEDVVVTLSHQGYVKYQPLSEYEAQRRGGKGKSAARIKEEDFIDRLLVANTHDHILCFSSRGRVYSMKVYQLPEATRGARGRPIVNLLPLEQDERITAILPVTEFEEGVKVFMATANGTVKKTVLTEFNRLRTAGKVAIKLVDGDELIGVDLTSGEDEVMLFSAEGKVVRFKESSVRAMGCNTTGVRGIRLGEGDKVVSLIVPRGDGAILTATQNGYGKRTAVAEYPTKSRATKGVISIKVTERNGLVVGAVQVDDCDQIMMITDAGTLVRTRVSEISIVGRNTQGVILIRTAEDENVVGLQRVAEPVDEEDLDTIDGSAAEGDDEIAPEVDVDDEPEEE

Molecule	IC50	IC50 [1]
C[C@H]1CN2c3ncc(-c4nnnn4C)cc3CC3(C(=O)NC(=O)NC3=O)[C@@H]2[C@@H](C)O1 (relative stereo) [Example 120(b), (6aR,7R,9S)-rel-7,9-Dimethyl-3-(1-methyl-1H-tetrazol-5-yl)-6a,7,9,10-tetrahydro-2′H,5H-spiro[1,4-oxazino[4,3-a][1,8]naphthyridine-6,5′-pyrimidine]-2′,4′,6′(1′H,3′H)-trione]	14 µM	–
C[C@@H]1CN2c3ncc(C(=N)NO)cc3CC3(C(=O)NC(=O)NC3=O)[C@H]2[C@H](C)O1 (relative stereo) [Example 121, (6aS,7S,9R)-rel-N-Hydroxy-7,9-dimethyl-2′,4′,6′-trioxo-1′,3′,4′,6′,6a,7,9,10-octahydro-2′H,5H-spiro[1,4-oxazino[4,3-a][1,8]naphthyridine-6,5′-pyrimidine]-3-carboximidamide]	9 µM	–
Cc1nc(-c2cnc3c(c2)CC2(C(=O)NC(=O)NC2=O)[C@H]2[C@H](C)O[C@H](C)CN32)no1 (relative stereo) [Example 122, (6aS,7S,9R)-rel-7,9-dimethyl-3-(5-methyl-1,2,4-oxadiazol-3-yl)-6a,7,9,10-tetrahydro-2′H,5H-spiro[1,4-oxazino[4,3-a][1,8]naphthyridine-6,5′-pyrimidine]-2′,4′,6′(1′H,3′H)-trione]	10 µM	–
C[C@@H]1CN2c3ncc(-c4noc(-c5ccccc5)n4)cc3CC3(C(=O)NC(=O)NC3=O)[C@H]2[C@H](C)O1 (relative stereo) [Example 123, (6aS,7S,9R)-rel-7,9-Dimethyl-3-(5-phenyl-1,2,4-oxadiazol-3-yl)-6a,7,9,10-tetrahydro-2′H,5H-spiro[1,4-oxazino[4,3-a][1,8]naphthyridine-6,5′-pyrimidine]-2′,4′,6′(1′H,3′H)-trione]	9 µM	–
CC1CC(C)C2N(C1)c1cnc(Br)cc1CC21C(=O)NC(=O)NC1=O (stereo not shown) [Example 2, 3-Bromo-7,9-Dimethyl-5,6a,7,8,9,10-hexahydro-1′H-spiro[pyrido[1,2-a][1,7]naphthyridine-6,5′-pyrimidine]-2′,4′,6′(3′H)-trione]	9 µM	–
O=C1NC(=O)C2(Cc3ccnc(Cl)c3N3CCCCC32)C(=O)N1 (stereo not shown) [Example 4, 1-chloro-5,6a,7,8,9,10-Hexahydro-1′H-spiro[pyrido[1,2-a][1,7]naphthyridine-6,5′-pyrimidine]-2′,4′,6′(3′H)-trione]	> 100 µM	–
O=C1NC(=O)C2(Cc3c(F)cncc3N3CCCCC32)C(=O)N1 (stereo not shown) [Example 5, 4-Fluoro-5,6a,7,8,9,10-Hexahydro-1′H-spiro[pyrido[1,2-a][1,7]naphthyridine-6,5′-pyrimidine]-2′,4′,6′(3′H)-trione]	> 100 µM	–
CC1C[C@@H](C)[C@H]2N(C1)c1ncccc1CC21C(=O)NC(=O)NC1=O (stereo partly drawn) [Example 7, (6aR,7R)-7,9-Dimethyl-5,6a,7,8,9,10-hexahydro-1′H-spiro[pyrido[1,2-a][1,8]naphthyridine-6,5′-pyrimidine]-2′,4′,6′(3′H)-trione]	3 µM	–
CC1C[C@@H](C)[C@H]2N(C1)c1ccc(Br)nc1CC21C(=O)NC(=O)NC1=O (stereo partly drawn) [Example 8, (6aR,7R)-3-Bromo-7,9-dimethyl-5,6a,7,8,9,10-hexahydro-1′H-spiro[pyrido[1,2-a][1,5]naphthyridine-6,5′-pyrimidine]-2′,4′,6′(3′H)-trione]	> 83 µM	–
O=C1NC(=O)C2(Cc3cc(Br)cnc3N3CCCCC32)C(=O)N1 (stereo not shown) [Example 10, 3-Bromo-5,6a,7,8,9,10-hexahydro-1′H-spiro[pyrido[1,2-a][1,8]naphthyridine-6,5′-pyrimidine]-2′,4′,6′(3′H)-trione]	> 83 µM	–
CC1C[C@@H](C)[C@H]2N(C1)c1ncc(Br)cc1CC21C(=O)NC(=O)NC1=O (stereo partly drawn) [Example 11, (6aR,7R)-3-Bromo-7,9-dimethyl-5,6a,7,8,9,10-hexahydro-1′H-spiro[pyrido[1,2-a][1,8]naphthyridine-6,5′-pyrimidine]-2′,4′,6′(3′H)-trione]	30 µM	–
C[C@H]1C[C@@H](C)[C@H]2N(C1)c1c(ccnc1Cl)CC21C(=O)NC(=O)NC1=O [Example 13, (6aR,7R,9S)-1-chloro-7,9-dimethyl-5,6a,7,8,9,10-hexahydro-1′H-spiro[pyrido[1,2-a][1,7]naphthyridine-6,5′-pyrimidine]-2′,4′,6′(3′H)-trione]	25 µM	–
Cc1nnc(-c2cc3c(nc2F)N2C[C@@H](C)C[C@@H](C)[C@@H]2C2(C3)C(=O)NC(=O)NC2=O)s1 [Example 17, (6aR,7R,9S)-2-Fluoro-7,9-dimethyl-3-(5-methyl-1,3,4-thiadiazol-2-yl)-5,6a,7,8,9,10-hexahydro-1′H-spiro[pyrido[1,2-a][1,8]naphthyridine-6,5′-pyrimidine]-2′,4′,6′(3′H)-trione]	6 µM	–
CC1CN2c3ncc(-c4nccs4)cc3CC3(C(=O)NC(=O)NC3=O)C2C(C)O1 [Example 25, (6aS,7S,9R)-rel-7,9-Dimethyl-3-(1,3-thiazol-2-yl)-6a., 7,9,10-tetrahydro-2′H,5H-spiro[1,4-oxazino[4,3-a][1,8]naphthyridine-6,5′-pyrimidine]-2′,4′,6′(1′H,3′H)-trione]	–	9 µM
CC1CN2c3ncc(-c4ccnn4C)cc3CC3(C(=O)NC(=O)NC3=O)C2C(C)O1 [Example 41, (6aS,7S,9R)-rel-7,9-Dimethyl-3-(1-methyl-1H-pyrazol-5-yl)-6a., 7,9,10-tetrahydro-2′H,5H-spiro[1,4-oxazino[4,3-a][1,8]naphthyridine-6,5′-pyrimidine]-2′,4′,6′(1′H,3′H)-trione]	–	5 µM
CC1CN2c3ncc(-c4cn[nH]c4)cc3CC3(C(=O)NC(=O)NC3=O)C2C(C)O1 [Example 44, (6aS,7S,9R)-rel-7,9-Dimethyl-3-(1H-pyrazol-4-yl)-6a., 7,9,10-tetrahydro-2′H,5H-spiro[1,4-oxazino[4,3-a][1,8]naphthyridine-6,5′-pyrimidine]-2′,4′,6′(1′H,3′H)-trione]	–	> 10 µM
C[C@H]1C[C@@H](C)[C@H]2N(C1)c1cnc(-c3ccn[nH]3)cc1CC21C(=O)NC(=O)NC1=O [Example 117, (6aR,7R,9S)-7,9-Dimethyl-3-(1H-pyrazol-5-yl)-5,6a,7,8,9,10-hexahydro-1′H-spiro[pyrido[1,2-a][1,7]naphthyridine-6,5′-pyrimidine]-2′,4′,6′(3′H)-trione]	1 µM	–
(2R,4S,4aS)-rel-2,4-Dimethyl-8-(1H-pyrazol-4-yl)-1,2,4,4a-tetrahydro-2′H,6H-spiro[1,4-oxazino[4,3-a][1,5]naphthyridine-5,5′-pyrimidine]-2′,4′,6′(1′H,3′H)-trione [Example 72]	–	> 5 µM
(6aS,7S,9R)-rel-3-(6-Methoxypyrazin-2-yl)-7,9-dimethyl-6a,7,9,10-tetrahydro-2′H,5H-spiro[1,4-oxazino[4,3-a][1,7]naphthyridine-6,5′-pyrimidine]-2′,4′,6′(1′H,3′H)-trione [Example 105]	–	19 µM
